The source of these data is patent US20030215517A1, “Process for production of crystals of an adjuvant substance, crystals obtained thereby and pharmaceutical preparations containing them” (priority 2002, published 2003).

Holding throughout (assay type): physicochemical
Data set [1] can be described thus: Particle size distribution before and after drying (Sympatec HELOS, dry dispersion RODOS). The procedure:
The particle size distribution in Table I was measured with a Sympatec HELOS (H0445), dry dispersion system (RODOS), pressure 2 bar.

Data set [2] is described as follows: Particle size development during crystallization with wet milling and temperature cycles (Example 1). As for the experimental part:
In a sulfonation flask with a blade mixer and a heating/cooling bath 30 g of lactose monohydrate are dissolved in 100 g of water at 62° C. A rotor-stator dispersing apparatus (Ultra Turrax, T25 basic, with S25N-25F) is operated with a rotation speed of 12000 to 22000 rpm to prepare the solution. Then 300 g of ethanol are added. After 1 to 2 minutes crystallization begins at 25 to 35° C. The Ultra Turrax is operated for an additional 10 minutes and then is shut off.
The starting suspension obtained is heated at 50° C. and subsequently cooled within an interval of 1 hour at 20° C. This procedure is repeated still twice more.

Data set [3] can be described thus: Particle size distribution of spray-dried microcrystals (Example 2). Conditions: Example 2, microcrystals spray-dried from ethanol suspension. The procedure:
(§1) Subsequently the suspension obtained in example 1 is filtered by means of a frit and washed with 100 ml of ethanol. The filter cake is suspended in 300 ml ethanol. The suspension is spray-dried under the following conditions in a laboratory spray-drier with two nozzles (2 mm) (QVF/Yamato):
(§2) Microcrystals are obtained in a separating filter of the spray-drier with the following particle size distribution: […]

The nature of data set [4]: Moisture content of spray-dried microcrystals (Example 2). The settings on record: Example 2, microcrystals spray-dried from ethanol suspension. As for the experimental part:
as §1, §2

[5] abbreviates: Suspension, 7 percent by weight lactose monohydrate in EtOH/water 75/25 (w/w), before drying.
[6] abbreviates: Example 1, 1st Cycle (heated at 50° C., cooled to 20° C. within 1 hour).

The structures appear in SMILES notation. Marks after values point to notes of the source that are not given here.

In data set [1] (After spray-drying, dry powder), `O.OC[C@H]1O[C@@H](O[C@H]2[C@H](O)[C@@H](O)C(O)O[C@@H]2CO)[C@H](O)[C@@H](O)[C@H]1O` (stereo partly drawn) [lactose monohydrate] yielded an X10 particle diameter of 2.25 μm, an X50 particle diameter of 6.0 μm and an X100 particle diameter of 43 μm. In data set [1] (setting [5]), the X10 particle diameter is listed as 2.11*** μm, the X50 particle diameter is reported as 5.9 μm and the X100 particle diameter is 43 μm. Besides, in data set [2] (setting [6]), the X50 is on record as 5 μm and the X100 was 43 μm. In data set [2] (Example 1, 2nd Cycle), the X50 amounted to 5.5 μm and the X100 was 43 μm. For the same compound, in data set [2] (Example 1, 3rd Cycle), the X50 amounted to 6 μm and the X100 is 43 μm. Further, in data set [2] (Example 1, Starting Suspension), the X50 was 3 μm and the X100 was 30 μm. Further, in data set [3], the “Particle size X10” value stood at 2.5 μm, the “Particle size X50” value worked out at 5.9 μm and the “Particle size X100” value was 43 μm. In data set [4], this compound showed a Moisture content of 4.5%.
